# In patent publication US10472663B2, “Procedure for the rapid determination of bacterial susceptibility to antibiotics that inhibit protein synthesis” (ABM TECHNOLOGIES, LLC, priority 2015, dated 2019):
# Tests used:
# Format in all cases: cell-based
# Escherichia coli = test: Micromax assay of ciprofloxacin-induced DNA fragmentation after a protein synthesis inhibitor (Example 1); settings: for DNA fragmentation of nucleoids: tobramycin 4 μg/ml 10 min followed by ciprofloxacin 1 μg/ml 30 min
# Description: As an exemplification of the principals previously described, two strains of Escherichia coli exponentially growing in Mueller-Hinton broth were assayed (FIGS. 1-6). The first strain of Escherichia coli was a TG1 strain susceptible to both the aminoglycoside tobramycin (an inhibitor of protein synthesis) and the quinolone ciprofloxacin (an agent which induces DNA fragmentation by trapping of topoisomerases in DNA) (FIGS. 1-3). The second strain was a clinical isolate resistant to tobramycin and susceptible to ciprofloxacin (FIGS. 4-6). Four treatments were applied to each strain to rapidly distinguish the susceptible and the resistant strain to tobramycin.
# One portion of both bacterial strains was incubated with tobramycin at 4 μg/ml for 40 minutes (FIGS. 1 and 4), a dosage indicated by the CLSI as the breakpoint of susceptibility to tobramycin in the standard antibiogram based on microdilution. Another portion of both strains was incubated with ciprofloxacin at 1 μg/ml for 30 min (FIGS. 2 and 5). Still another portion of both strains was incubated with tobramycin at 4 μg/ml for 10 min followed by ciprofloxacin at 1 μg/ml for 30 min, without removing the tobramycin (FIGS. 3 and 6). A final portion was left with no antibiotic.
# After each incubation cells were processed using the variant of the Micromax technology to visualize the nucleoids, i.e. bacterial chromosomal DNA, in all the cells of the population. Cells from each culture were immersed in an agarose microgel on a slide and incubated with a specific lysing solution to remove the cell wall in all the cells and release in the microgel the nucleoids contained inside the bacteria. These are dried, stained with a high sensitive fluorochrome for DNA like SYBR Gold and visualized under fluorescence microscopy. FIGS. 1-6 depicts representative images captured under each of the conditions described below.
# The above described methodology was employed to rapidly determine the susceptibility of 12 strains of E. coli to tobramycin. One portion of each bacterial strain was incubated with tobramycin at the susceptibility breakpoint dosage, 4 μg/ml, for 40 min. A portion of each strain was incubated with ciprofloxacin at 1 μg/ml for 30 min. Still another portion of each strain was incubated with tobramycin at 4 μg/ml for 10 min followed by ciprofloxacin at 1 μg/ml for 30 min, without removing the tobramycin. A final portion of each strain was left with no antibiotic. E. coli strains were identified as susceptible or not based on the levels of DNA fragmentation in the portion of each strain incubated with ciprofloxacin and the portion incubated with tobramycin and ciprofloxacin.
# The principals exemplified in Example 1 were confirmed with the aminoglycoside amikacin. Briefly, a susceptible and resistant strain of E. coli were exposed to similar conditions to those described in Example 1, except that amikacin was utilized as the protein synthesis inhibiting antibiotic. Specifically, each was strain subjected to four treatments. One portion received no antibiotics, and another portion received only a quinolone, such as ciprofloxacin or norfloxacin to induce DNA fragmentation. Still another portion received the protein synthesis inhibiting antibiotic aminoglycoside amikacin, followed by the quinolone. Another portion received only amikacin. A final portion received neither antibiotic.
# The principals exemplified in Example 1 were further confirmed with the aminoglycoside gentamicin. Briefly, the rapid test was performed on 15 isolated E. coli strains according to the methodology described above, except that gentamicinin was utilized as the protein synthesis inhibiting antibiotic. Suppressed DNA fragmentation were used to characterize bacterial susceptibility and those characterizations were verified with the standard antibiogram for gentamicin by microdilution. […]
# Pseudomonas aeruginosa [1] = test: Variant Micromax assay of cell enlargement by ceftazidime after tobramycin (Example 7)
# Description: As an example, two strains of Pseudomonas aeruginosa exponentially growing in Mueller-Hinton broth were assayed. These strains were both susceptible to the β-lactam ceftazidime, which inhibits peptidoglycan synthesis. One strain was susceptible and the other resistant to the aminoglycoside tobramycin (an inhibitor of protein synthesis). For the purpose of rapidly distinguishing the susceptible and the resistant strain to tobramycin each strain was subjected to four treatments.
# A portion of each strain was incubated with tobramycin at 4 μg/ml (the CLSI breakpoint of susceptibility) for 75 minutes. An assay of this portion is depicted at FIGS. 31 and 34. Another portion of each strain was incubated with ceftazidime at 0.5 μg/ml for 60 minutes. An assay of this portion is depicted at FIGS. 32 and 35. Still another portion of both strains was incubated with tobramycin at 4 μg/ml for 15 minutes followed by ceftazidime at 0.5 μg/ml for 60 minutes, without removing the tobramycin. Assays of these strains can be seen at FIGS. 33 and 36, respectively. A final portion of each strain was not treated with either antibiotic.
# After incubation with the antibiotics, cells were processed using a variant Micromax technology to visualize the enlargement or not of the bacteria. Samples from each culture were immersed in an agarose microgel on a slide, dried, stained with a high sensitive fluorochrome for DNA like SYBR Gold and visualized under fluorescence microscopy to visualize cell shape and size.
# Pseudomonas aeruginosa [2] = test: Variant Micromax assay of cell wall damage by meropenem after tobramycin (Example 5); settings: for release of nucleoids (cell wall damage): tobramycin 4 μg/ml 15 min followed by meropenem 0.2 μg/ml 60 min
# Excerpt: As an exemplification of this principal, FIGS. 19-24 illustrates assays of two strains of Pseudomonas aeruginosa exponentially growing in Mueller-Hinton broth. Both strains were both susceptible to the β-lactam meropenem, which inhibits peptidoglycan synthesis. One strain was susceptible (FIGS. 19-21) and the other resistant (FIGS. 22-24) to the aminoglycoside tobramycin (inhibitor of protein synthesis).
# For the purpose of rapidly distinguishing susceptible and resistant (i.e. non-susceptible) strains to tobramycin each strain was subjected to four treatments. A portion of each strain was incubated with tobramycin at 4 μg/ml for 75 min (FIGS. 19 and 22). The dose utilized, was indicated by the CLSI as the breakpoint of susceptibility to tobramycin. FIGS. 20 and 23 illustrate an assay from another portion of each strain, which was incubated with Meropenem at 0.2 μg/ml for 60 min. FIGS. 21 and 24, illustrate assays from still another portion of both strains which was incubated with tobramycin at 4 μg/ml for 15 min followed by meropenem at 0.2 μg/ml for 60 min, without removing the tobramycin. Still another portion of both strains was maintained without the addition of either antibiotic.
# After incubation cells were processed using a variant Micromax technology to visualize the affectation or not of the cell wall based on the release or not of the nucleoids contained inside the bacteria. In the same manner described previously, samples from cells from the culture are immersed in an agarose microgel on a slide and incubated with a specific lysing solution that removes the cell wall only in those bacteria whose peptidoglycan was affected, thus releasing in the microgel the nucleoids contained inside. […] The processed bacteria in microgel are dried, stained with a high sensitive fluorochrome for DNA like SYBR Gold and visualized under fluorescence microscopy.
# [3] = rapid test, confirmed by microdilution antibiogram, 12 strains for tobramycin, 15 for gentamicin
compound,measurement,setting,value
NC[C@H]1O[C@H](O[C@H]2[C@H](O)[C@@H](O[C@H]3O[C@H](CO)[C@@H](O)[C@H](N)[C@H]3O)[C@H](N)C[C@@H]2N)[C@H](N)C[C@@H]1O [tobramycin],E. coli strains identified as non-susceptible (resistant),Escherichia coli; [3],three of the twelve strains as non-susceptible
same,E. coli strains identified as susceptible,Escherichia coli; [3],nine of the twelve strains as susceptible
same,DNA fragmentation of nucleoids,Escherichia coli; tobramycin-resistant clinical isolate,the DNA was extensively fragmented
same,DNA fragmentation of nucleoids,Escherichia coli; tobramycin-susceptible TG1 strain,nucleoids with reduced level of DNA fragmentation
same,modification of nucleoids,"Escherichia coli; tobramycin alone 4 μg/ml 40 min, both tobramycin-susceptible and -resistant strains",did not result in any modifications of the nucleoids
same,cell enlargement,"Pseudomonas aeruginosa [1]; tobramycin 4 μg/ml 15 minutes followed by ceftazidime 0.5 μg/ml 60 minutes, tobramycin-resistant strain",bacteria appeared enlarged
same,bacterial shape and size,"Pseudomonas aeruginosa [1]; tobramycin alone 4 μg/ml 75 minutes, both strains",does not affect the bacterial shape and size
same,release of nucleoids (cell wall damage),Pseudomonas aeruginosa [2]; tobramycin-resistant strain,the nucleoids were released
same,release of nucleoids (cell wall damage),Pseudomonas aeruginosa [2]; tobramycin-susceptible strain,"unchanged, non-lysed bacteria"
same,cell wall lysis and bacterial shape,"Pseudomonas aeruginosa [2]; tobramycin alone 4 μg/ml 75 min, both strains",does not result in cell wall lysis
